Results reported in ChEMBL document CHEMBL1133765, “QSAR model for drug human oral bioavailability” (J Med Chem, 2000).

How the values were obtained:
physchem [1] = conditions: octanol/water
[2] = octanol/water
clinical = conditions: human, in vivo, po
physchem [3] = assay: physchem

Structure (SMILES) | logD (physchem [1]; pH 6.5, logD) | delta logD [2] | bioavailability (clinical; F) [%] | pKa (physchem [3]) | logD (physchem [1]; pH 6.5) | bioavailability (clinical) [%]
CC(=O)Oc1ccccc1C(=O)O [ASPIRIN] | -1.81 | 0.9 | 79 |  |  | 
C[C@H]1C[C@@H]2[C@H]([C@@H](O)C[C@@]3(C)[C@H]2CC[C@]3(O)C(=O)CO)[C@@]2(C)C=CC(=O)C=C12 [METHYLPREDNISOLONE] | 1.66 | 0 | > 80 |  |  | 
O=C1NC(=O)C(c2ccccc2)(c2ccccc2)N1 [PHENYTOIN] | 2.47 | 0.1 | > 80 | 8 |  | 
CN1CCN2c3ncccc3Cc3ccccc3C2C1 (stereo unspecified) [MIRTAZAPINE] | 2.01 | -0.55 | 79 | 7.1 |  | 
NCCc1ccc(O)c(O)c1 [DOPAMINE] | -3.37 | -0.9 | < 20 | 8.9 |  | 
Oc1ccc(C(O)C2CCCCN2)cc1O (stereo unspecified) [RIMITEROL] |  | -0.9 |  | 9.9 | -3.13 | < 20
CC(CCc1ccc(O)cc1)NCCc1ccc(O)c(O)c1 (stereo unspecified) [DOBUTAMINE] | -0.48 | -0.9 | < 20 | 9.5 |  | 
CC(=O)CCCCn1c(=O)c2c(ncn2C)n(C)c1=O [PENTOXIFYLLINE] | 0.29 | 0 | 49 |  |  | 
O=C1CN=C(c2ccccc2)c2cc([N+](=O)[O-])ccc2N1 [NITRAZEPAM] |  | 0 |  |  | 2.25 | 79
CN1CCN(C2=Nc3cc(Cl)ccc3Nc3ccccc32)CC1 [CLOZAPINE] |  | -0.81 |  |  | 1.81 | 79
CCC1(c2ccccc2)C(=O)NC(=O)NC1=O [PHENOBARBITAL] |  | 0.21 |  |  | 1.43 | > 80
CNS(=O)(=O)Cc1ccc2[nH]cc(CCN(C)C)c2c1 | -2.07 | -0.9 | < 20 | 9.4 |  | 
COCCOC(=O)C1=C(C)NC(C)=C(C(=O)OC(C)C)C1c1cccc([N+](=O)[O-])c1 (stereo unspecified) [NIMODIPINE] | 0.73 | 0 | < 20 |  |  | 
Nc1nc(=O)[nH]cc1F [FLUCYTOSINE] | -1.65 | 0 | > 80 |  |  | 
COc1cc(NC(C)CCCN)c2ncccc2c1 (stereo unspecified) [PRIMAQUINE] | -2.19 | -0.9 | 79 | 10.3 |  | 
CN1CCN2c3ccccc3Cc3ccccc3C2C1 (stereo unspecified) [MIANSERIN] | 2.78 | -0.52 | 49 |  |  | 
O=c1[nH]cc(F)c(=O)[nH]1 [FLUOROURACIL] |  | 0.1 |  | 8 | -0.89 | 49
CC(C)(C)NCC(O)c1cc(O)cc(O)c1 (stereo unspecified) [TERBUTALINE] | -1.82 | -0.89 | < 20 |  |  | 
Cc1nc2n(c(=O)c1CCN1CCC(c3noc4cc(F)ccc34)CC1)CCCC2 [RISPERIDONE] |  | -0.9 |  |  | 0.74 | 79
CN1CCN(CCCN2c3ccccc3Sc3ccc(Cl)cc32)CC1 [PROCHLORPERAZINE] | 2.51 | -0.69 | < 20 | 7.5 |  | 
CCC1(C)CC(=O)NC1=O (stereo unspecified) [ETHOSUXIMIDE] |  | 0 |  |  | -0.33 | > 80
C#C[C@]1(O)CC[C@H]2[C@@H]3CCc4cc(O)ccc4[C@H]3CC[C@@]21C [ETHINYL ESTRADIOL] | 3.67 | 0 | 49 |  |  | 
NNC(=O)c1ccncc1 [ISONIAZID] | -0.7 | 0 | > 80 |  |  | 
O=C1CN(/N=C/c2ccc([N+](=O)[O-])o2)C(=O)N1 [NITROFURANTOIN] | -0.47 | 0 | > 80 |  |  | 
Cc1ncsc1CCCl [CLOMETHIAZOLE] |  | 0 |  |  | 2.12 | < 20
CC(C)(Sc1cc(C(C)(C)C)c(O)c(C(C)(C)C)c1)Sc1cc(C(C)(C)C)c(O)c(C(C)(C)C)c1 [PROBUCOL] | 7.29 | 0 | < 20 |  |  | 
CN(C)CCC=C1c2ccccc2CCc2ccccc21 [AMITRIPTYLINE] |  | -0.9 |  |  | 2.14 | 49
CCC1(c2ccccc2)C(=O)NCNC1=O [PRIMIDONE] | 0.91 | 0 | > 80 |  |  | 
CNCCC=C1c2ccccc2CCc2ccccc21 [NORTRIPTYLINE] | 1.08 | -0.9 | 79 |  |  | 
